Data reported in US11261435B2, “Chemical-inducible genome engineering technology” (AGENCY FOR SCIENCE, TECHNOLOGY AND RESEARCH, priority 2015, dated 2022).

Assays:
EMX1 locus [1] = assay: Surveyor cleavage assay at the EMX1 locus in HEK293 cells; format: cell-based, human; details: for switching ratio: harvested 96 hours after transfection
Description: FIG. 29|Effect of enzyme dosage on the level of background activity, shown as gel images. Different amounts of an iCas-bearing plasmid were transfected together with an EMX1-targeting sgRNA into HEK293 cells. These cells were harvested 96 hours after transfection for the Surveyor cleavage assay. DNA modification was clearly observed when 1 μg of plasmid was utilised, even in the absence of the inducer. […] The switching ratio was improved from 2.83 to 4.16 and 7.96 respectively. […] Arrows indicate the height of the expected cleavage bands.

FANCF locus = assay: Surveyor assay, genome modification at the FANCF locus in HEK293 cells; format: cell-based, human; details: for cleavage bands with 4HT: 100 nM or 1000 nM 4HT for 24 hours
Description: FIG. 16|Genome modification at the FANCF locus in HEK293 cells, the data represented as images showing the results and the concentration of gene induction. 24 hours after transfection with Cas9 variant 27, 29, or 30, the cells were either harvested immediately (0 hour time point) or were exposed to 0 nM, 100 nM or 1000 nM 4HT for another 24 hours before genomic DNA was isolated and analysed by the Surveyor assay. Arrows indicate the expected cleavage bands. […] Furthermore, the leakiness in editing activity became more pronounced over time, as indicated by the increase in INDEL frequency from 2.5% to 7.7% for variant 27 and from 2.9% to 3.5% for variant 29.
At 24 hours after transfection with a FANCF-targeting plasmid, cells were treated with or without tamoxifen for another 24 hours before genomic DNA was isolated and analysed by the Surveyor assay (FIG. 10).

EMX1 locus [2] = assay: Illumina deep sequencing of INDELs at the EMX1 locus in HEK293 cells; format: cell-based, human; details: for time at which leaky activity was first detected: without 4-hydroxytamoxifen (0 nM)
[3] = system: known Cas9 off-target sites of the EMX1, VEGFA, FANCF, WAS, and TAT sgRNAs; assay: Surveyor assay at known Cas9 off-target sites; format: cell-based, human
Description: The specificity of iCas was tested using seven distinct guide RNAs (gRNAs), the results of which are shown in three-dimensional column graphs. […] (n≥2 replicates for each on-target site; n≥3 replicates for each EMX1 off-target site; n≥1 replicate for other off-target sites.)
To assess the DNA cleavage specificity of iCas, the modification of known Cas9 off-target sites of the EMX1, VEGFA, FANCF, WAS, and TAT sgRNAs was measured.

HEK293-iCas cells = assay: Immunofluorescence localization of iCas in the stable line; format: cell-based, human
Description: FIG. 6|Toggling the activity of iCas on and off (a,b) Immunofluorescence images (a) and quantification (b) of iCas in HEK293-iCas cells either untreated (N.A.) or treated with 4-HT and then fixed at 0, 48, or 72 h after removal of 4-HT from the culture medium. DAPI, nuclear staining; V5, antibody specific for V5-tagged Cas9. Scale bar, […]. In (b), at least 300 cells were counted for each sample and time point. Data represent mean±s.d. from three biological replicates. n.s., not significant (P>0.25); **P<0.001, Student's t-test. (c) Surveyor assay detection of genome modification in HEK293 cells after two cycles of transfection and 4-HT treatment (4-HT 1 and 4-HT 2). A sgRNA targeting the WAS locus was transfected first, and a sgRNA targeting the ASXL2 locus second. Arrows indicate the expected cleavage bands.
In principle, a conditional system such as iCas should allow users to generate stable cell lines and induce its activity whenever needed. […] The cell line was verified to be functional (FIG. 25a) and monitored the intracellular localization of iCas by immunofluorescence (FIG. 6a). Without 4-hydroxytamoxifen, most cells produced an iCas protein that was localized in the cytoplasm; only 15% of the cells contained nuclear-localized protein. […] The inducer was then washed away and the cells immunostained with anti-V5 antibody at 48 and 72 hours after removal of 4-hydroxytamoxifen.

[4] = system: EMX1 and ADAR1 genomic loci; assay: Multiplex genome editing, Surveyor assay; format: cell-based, human
Description: Besides single gene targeting, the ability of iCas to perform multiplex genome engineering was compared with that of intein-Cas9 or split-Cas9. HEK293 cells were co-transfected with a sgRNA targeting EMX1 and another sgRNA targeting a coding exon of ADAR1 (ADAR), and subsequently the extent of genome modification was analysed by the Surveyor assay.

[5] = system: EMX1, TAT, and WAS genomic loci; assay: Benchmarking of post-translational control systems by Surveyor assay and deep sequencing; format: cell-based, human
Text: Arrows indicate the expected cleavage bands.

TAT locus = assay: Surveyor assay at the TAT locus in cancer cell lines; format: cell-based, human; details: 1 μM 4HT; MCF7, DLD1 and HCT116
Description: FIG. 18|Genome modification at the TAT locus in different cancer cell lines. The efficiency of iCas was tested in the breast cancer cell line MCF7, as well as in the colorectal cancer cell lines DLD1 and HCT116, the results of which are shown as gel images. Based on the Surveyor assays, genome modifications were detected after the cells were treated with 1 μM 4HT for 6 hours. The INDEL frequency increased when the treatment duration was lengthened to 8 hours for all the cell lines tested. Arrows indicate the expected cleavage bands.
(§1) The editing activity continued to increase with longer treatment durations.

Wnt signalling pathway = assay: Wnt-responsive luciferase reporter assay in STF3A-TetOn cells; format: cell-based; details: CTNNB1-targeting sgRNA; chemical 6 hours, harvested after another 72 hours
Description: Cells were treated for 6 hours with the respective chemical and then harvested after another 72 hours to allow sufficient time for changes in β-catenin or luciferase protein levels.
The cells were then trypsinised and re-seeded equally into a Corning 96-well flat clear bottom white plate. Samples were assayed for luciferase activity using Dual-Glo Luciferase (Promega) according to manufacturer's instructions. All measurements were taken using the i-control software for Tecan microplate readers. All firefly luciferase measurements were normalized to the corresponding renilla luciferase readings.

[6] = system: VEGFA promoter, WAS, TAT, and FANCF genes; assay: Surveyor assay at VEGFA, WAS, TAT and FANCF genomic loci in HEK293 cells; format: cell-based, human; details: 1 μM 4-HT
Text: as §1

PARP4 gene = assay: Surveyor assay at PARP4 in the HEK293-iCas stable line; format: cell-based, human; details: 1 μM 4HT for 24 hours; after at least two weeks of passaging
Description: FIG. 27|Temporal switching of iCas activity. […] To assess the functionality of this cell line, a lentivirus expressing a sgRNA targeting one of the coding exons of the PARP4 gene was generated, and HEK293-iCas cells were infected the virus. After puromycin selection and continuous passaging of the cells for at least two weeks, the cells were treated with or without 1 μM 4HT for 24 hours before harvesting them for analysis using the Surveyor assay. […] When the cells are treated with 4HT, the iCas enzyme is expected to translocate into the nucleus and be able to edit the DNA (these cells are depicted as yellow). However, when the inducer has been removed for more than 72 hours, the iCas protein is expected to translocate out of the nucleus and thus no more editing will be anticipated.

WAS locus and ASXL2 = assay: Toggling of iCas activity, Surveyor assay; format: cell-based, human
Description: Subsequently, the possibility of toggling the activity of iCas was explored (FIG. 25b). After 1 μM 4-hydroxytamoxifen treatment of HEK293 cells co-transfected with iCas and a first sgRNA targeting the WAS locus, the inducer was removed and 72 hours waiting time was allowed to pass, thereby allowing nuclear-localized iCas protein to exit the nucleus before introducing a second sgRNA targeting a coding exon of ASXL2. The cells were then either treated with 4-hydroxytamoxifen a second time or left untreated.

β-catenin = β-catenin transcript (qRT-PCR) and protein (Western blot) levels; format: cell-based, human; details: inducer 6 hours, harvested after another 72 hours
Description: Subsequently, they were harvested for analysis after another 72 hours. […] Error bars reflect the standard deviation from at least three biological replicates.
Proteins from whole cell lysates, nuclear fractions, and cytosolic fractions were loaded in equal amounts for SDS PAGE and then transferred onto a nitrocellulose membrane for western blot. The primary antibodies used were α-V5 (Life Technologies, 1:8000 dilution), α-3PGDH (Santa Cruz, 1:1000 dilution), and α-total histone H3 (Abcam, 1:10000 dilution). Primary antibodies were diluted in TBST+5% milk and incubated overnight at 4° C. Secondary antibodies were used at a 1:2500 dilution in TBST+5% milk. Membranes were exposed after addition of WesternBright Sirius HRP substrate (Advansta).

CTNNB1 locus = assay: Surveyor assay at the CTNNB1 locus in STF3A-Tet-On cells; format: cell-based
HEK293 cells = assay: Immunohistochemical staining, nuclear localization of (ERT2)2-Cas9-(ERT2)2; format: cell-based, human; details: no 4-HT; 24 hours after transfection
Description: To verify the results from the Surveyor assays and deep sequencing experiments, immunohistochemical staining was performed to determine the subcellular localization of the three variants, all of which contained two copies of ERT2 at both termini of the enzyme ((ERT2)2-Cas9-(ERT2)2), with or without 1 μM 4-HT. 24 hours after transfection with plasmids carrying a Cas9 variant and a sgRNA targeting the EMX1, VEGFA, FANCF, WAS, or TAT genomic locus, the cells were either fixed immediately and stained with anti-V5 or were subjected to 6 h or 24 h 4-HT treatment before fixation and staining (FIG. 15). […] Most of the protein translocation occurred within the first 6 hours of 4-hydroxytamoxifen treatment.
Paraformaldehyde-fixed HEK293 cells were first incubated with blocking solution (10% FBS in 0.1M PBS) (JR Scientific Inc) for 30 minutes and then quenched with 3% hydrogen peroxide. Next, the samples were incubated for 2 hours at room temperature or 4° C. overnight with primary antibody specific against the V5 epitope tag (Life Technologies) in blocking solution. Negative controls were incubated with blocking solution without any primary antibody. Subsequently, the samples were thoroughly washed with PBS and then incubated for 1 hour at room temperature with secondary horseradish peroxidase (HRP)-conjugated antibody (GE Healthcare UK Ltd). […]

[7] = absence of 4HT, harvested 24 hours after transfection (0 hour time point)

“4-hydroxytamoxifen [4HT, reference compound]” was tested, and the “4HT concentration for maximum activation of the inducible genome editing system” value (EMX1 locus [1]; 10, 100, 1000 nM tested, Surveyor assay and deep sequencing) was “at least 100 nM”.
“variant 27: NLS-TGGGS-ERT2-PRGGS-ERT2-TPESGA-Cas9-NLS-ERT2-PAG-ERT2 (SEQ ID NO. 246)” was tested, and the “duration of 4-hydroxytamoxifen treatment at which cleavage activity appears to plateau” value (“duration … to plateau” for short) (EMX1 locus [1]; Surveyor assay) was “around 8 hours”, the INDEL frequency (FANCF locus; 0 nM 4HT for another 24 hours) was 7.7% and the “cleavage bands with 4HT” value (FANCF locus) was “strong cleavage bands were observed”. For the same substance, the INDEL frequency (FANCF locus; [7]) was 2.5%, the “duration of 4-hydroxytamoxifen treatment after which a low level of DNA editing was revealed” value (“duration … of DNA editing was revealed” below) (EMX1 locus [2]) was 2 h and the “time at which leaky activity was first detected” value (EMX1 locus [2]) was 6 h.
For “variant 29: NLS-TG-ERT2-GGSPRGGS-ERT2-TPESGA-Cas9-NLS-ERT2-PAG-ERT2 (SEQ ID NO. 248)”, the “duration … to plateau” value (EMX1 locus [1]; Surveyor assay) was “around 8 hours”, the INDEL frequency (FANCF locus; 0 nM 4HT for another 24 hours) was 3.5% and the “cleavage bands with 4HT” value (FANCF locus) was “strong cleavage bands were observed”. The INDEL frequency (FANCF locus; [7]) was 2.9%, the “duration … of DNA editing was revealed” value (EMX1 locus [2]) was 2 h and the “time at which leaky activity was first detected” value (EMX1 locus [2]) was 2 h.
“variant 30: NL-TGGGS-ERT2-PRGGS-ERT2-TPESGA-Cas9-NLS-ERT2-PAGGGS-ERT2 (SEQ ID NO. 249); hereafter referred to as iCas” was tested, and the “cleavage at the two EMX1 off-target sites” value ([3]; EMX1 sgRNA, 1 μM 4-hydroxytamoxifen up to 24 hours) was “did not yield any measurable cleavage”, the “duration of 4HT treatment after which off-target effects were observed” value ([3]; gRNAs targeting VEGFA promoter first site, TAT locus, FANCF locus) was 16 h and the switching ratio (EMX1 locus [1]; 0.25 μg plasmid) was 7.96. For the same substance, the switching ratio (EMX1 locus [1]; 0.5 μg plasmid) was 4.16, the switching ratio (EMX1 locus [1]; 1 μg of plasmid) was 2.83 and the “duration … to plateau” value (EMX1 locus [1]; Surveyor assay) was “around 8 hours”. For the same substance, the “time point at which leaky activity was observed” value (EMX1 locus [1]; without 4-hydroxytamoxifen (0 nM), Surveyor assay) was 48 h, the “cells containing nuclear-localized protein” value (HEK293-iCas cells; 24 hour treatment with 4-hydroxytamoxifen) was 48% and the “cells containing nuclear-localized protein” value (HEK293-iCas cells; 72 hours after removal of 4-hydroxytamoxifen) was “not significantly different from that of the pre-induction state”. The “cells containing nuclear-localized protein” value (HEK293-iCas cells; without 4-hydroxytamoxifen) was 15%, the “editing of two genomic loci simultaneously” value ([4]; 12 hours of chemical treatment) was “generated INDELs at both the EMX1 and ADAR1 genomic loci” and the “editing of two genomic loci simultaneously” value ([4]; 24 hours of chemical treatment) was “produced more genome modification than at 12 hours”. The “switching ratio compared with intein-Cas9” value ([5]; Surveyor assay, EMX1 and WAS loci) was “significantly higher ratios than intein-Cas9”, the “induction time needed to reach the INDEL frequency of split-Cas9 after approximately 96 hours” value ([5]; deep sequencing) was 12 h and the “background activity without the inducer” value ([5]; no inducer) was “comparable levels of leakiness”. For the same substance, the “duration of 4HT treatment after which genome modifications were detected” value (TAT locus) was 6 h, the “cleavage bands with 4HT” value (FANCF locus) was “strong cleavage bands were observed” and the “cleavage band in the absence of 4HT” value (FANCF locus; no 4HT) was “no cleavage band was detected”. For the same substance, the luciferase activity (Wnt signalling pathway) was “significant decrease in luciferase activity”, the “duration of 4-hydroxytamoxifen treatment until nuclease activity, all loci tested” value [6] was no more than 4 h and the “duration … of DNA editing was revealed” value (EMX1 locus [2]) was 2 h. For the same substance, the “time at which leaky activity was first detected” value (EMX1 locus [2]) was 16 h, the “cleavage bands with or without 4HT in the stable line” value (PARP4 gene) was “Cleavage bands (indicated by arrows) were observed for the treated cells, but not for the untreated cells” and the “cleavage after two cycles of transfection, treated twice with the inducer” value (WAS locus and ASXL2; 1 μM 4-hydroxytamoxifen after first and second transfection) was “cleavage activity was readily observed at both targeted loci”. For the same substance, the “cleavage after two cycles of transfection, inducer after the first transfection only” value (WAS locus and ASXL2; 4-hydroxytamoxifen after the first but not the second transfection) was “cleavage was detected only at the WAS locus”, the “amount of β-catenin protein relative to the original level” value (β-catenin; co-transfected with β-catenin-targeting sgRNA, Western blot) was “less than 20%” and the “transcript level of β-catenin” value (β-catenin; β-catenin-targeting sgRNA, qRT-PCR) was “significant decrease”. The “duration of inducer treatment until modification of the target locus” value (CTNNB1 locus; 1 μM 4-hydroxytamoxifen or 1 μg/ml doxycycline) was no more than 6 h, the “cleavage bands in the absence of 4-hydroxytamoxifen” value (CTNNB1 locus; any time point) was “No cleavage bands were observed” and the “nuclear localization in the absence of 4-hydroxytamoxifen, versus variant 27 or variant 29” value (HEK293 cells) was “significantly less nuclear localization”.
